# Substitutions are numbered along the chain they refer to.
# How the values were obtained:
# Assay in all cases: microscale thermophoresis
# Settings in all cases: EWSR1-C mutant; read-out: binding constants
# EWSR1-C (GFP-EWSR1-C) [1] = target: T1, EWSR1-C (GFP-EWSR1-C) (Homo sapiens, UniProt Q01844, I400A)
# T1 construct: C-terminal region 301-656 (contains RNA recognition motif 353-453), GFP fusion, overexpressed in HEK293T, lysate
# T1 sequence (Q01844 301-656 I400A): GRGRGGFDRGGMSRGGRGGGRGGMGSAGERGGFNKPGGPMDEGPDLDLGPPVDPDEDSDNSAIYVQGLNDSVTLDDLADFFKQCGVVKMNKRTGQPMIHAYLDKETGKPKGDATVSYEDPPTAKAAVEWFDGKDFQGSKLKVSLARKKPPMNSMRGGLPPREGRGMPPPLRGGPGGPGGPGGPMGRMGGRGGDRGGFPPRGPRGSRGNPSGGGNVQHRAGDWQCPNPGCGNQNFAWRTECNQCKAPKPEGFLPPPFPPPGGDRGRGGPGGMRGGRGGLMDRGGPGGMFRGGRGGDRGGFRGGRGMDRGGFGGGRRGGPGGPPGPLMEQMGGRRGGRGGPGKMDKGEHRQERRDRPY
# Procedure: (§1) microscale thermophoresis on EWSR1-C (GFP-EWSR1-C) | The binding affinity of HHT to these EWSR1 mutants was assessed through MST
# EWSR1-C (GFP-EWSR1-C) [2] = target: T2, EWSR1-C (GFP-EWSR1-C) (Homo sapiens, UniProt Q01844, P396A)
# T2 construct: C-terminal region 301-656 (contains RNA recognition motif 353-453), GFP fusion, overexpressed in HEK293T, lysate
# T2 sequence (Q01844 301-656 P396A): T1 sequence (Q01844 301-656 I400A) with P96A, A100I
# Procedure: as §1
# EWSR1-C (GFP-EWSR1-C) [3] = target: T3, EWSR1-C (GFP-EWSR1-C) (Homo sapiens, UniProt Q01844, M397A)
# T3 construct: C-terminal region 301-656 (contains RNA recognition motif 353-453), GFP fusion, overexpressed in HEK293T, lysate
# T3 sequence (Q01844 301-656 M397A): T1 sequence (Q01844 301-656 I400A) with M97A, A100I
# Procedure: as §1
# EWSR1-C (GFP-EWSR1-C) [4] = target: T4, EWSR1-C (GFP-EWSR1-C) (Homo sapiens, UniProt Q01844, T393A)
# T4 construct: C-terminal region 301-656 (contains RNA recognition motif 353-453), GFP fusion, overexpressed in HEK293T, lysate
# T4 sequence (Q01844 301-656 T393A): T1 sequence (Q01844 301-656 I400A) with T93A, A100I
# Procedure: as §1
smiles,measurement,setting,value
COC(=O)C[C@](O)(CCCC(C)(C)O)C(=O)O[C@@H]1C(OC)=C[C@]23CCCN2CCc2cc4c(cc2[C@H]13)OCO4 [Homoharringtonine],Kd,EWSR1-C (GFP-EWSR1-C) [1],35.7 µM
same,Kd,EWSR1-C (GFP-EWSR1-C) [2],94.6 µM
same,Kd,EWSR1-C (GFP-EWSR1-C) [3],9.75 µM
same,Kd,EWSR1-C (GFP-EWSR1-C) [4],81 µM

# From paper PMC12747546, “Homoharringtonine suppresses acute myeloid leukemia progression by orchestrating EWSR1 phase separation in an m^6A‐YTHDF2‐dependent mechanism” (iMeta, 2025)
